Test results from patent US20190151283A1, “NON-STEROIDAL SELECTIVE GLUCOCORTICOID RECEPTOR AGONISTIC MODULATORS (SEGRAMs) AND USES THEREOF” (ASSOCIATION POUR LA RECHERCHE À L'IGBMC (ARI), priority 2017, published 2019).

How the values were obtained:
[1] = target: T1, glucocorticoid receptor (GR) (Mus musculus, UniProt P06537); assay: GR transcriptional functions in mouse ears after topical 18-hour treatment (q-RT-PCR); type: in vivo
T1 construct: RNA transcripts were then extracted from mouse ears; from tissue; host or cells: ear skin of Balb/C mice (in vivo topical treatment)
T1 sequence (P06537 1-792): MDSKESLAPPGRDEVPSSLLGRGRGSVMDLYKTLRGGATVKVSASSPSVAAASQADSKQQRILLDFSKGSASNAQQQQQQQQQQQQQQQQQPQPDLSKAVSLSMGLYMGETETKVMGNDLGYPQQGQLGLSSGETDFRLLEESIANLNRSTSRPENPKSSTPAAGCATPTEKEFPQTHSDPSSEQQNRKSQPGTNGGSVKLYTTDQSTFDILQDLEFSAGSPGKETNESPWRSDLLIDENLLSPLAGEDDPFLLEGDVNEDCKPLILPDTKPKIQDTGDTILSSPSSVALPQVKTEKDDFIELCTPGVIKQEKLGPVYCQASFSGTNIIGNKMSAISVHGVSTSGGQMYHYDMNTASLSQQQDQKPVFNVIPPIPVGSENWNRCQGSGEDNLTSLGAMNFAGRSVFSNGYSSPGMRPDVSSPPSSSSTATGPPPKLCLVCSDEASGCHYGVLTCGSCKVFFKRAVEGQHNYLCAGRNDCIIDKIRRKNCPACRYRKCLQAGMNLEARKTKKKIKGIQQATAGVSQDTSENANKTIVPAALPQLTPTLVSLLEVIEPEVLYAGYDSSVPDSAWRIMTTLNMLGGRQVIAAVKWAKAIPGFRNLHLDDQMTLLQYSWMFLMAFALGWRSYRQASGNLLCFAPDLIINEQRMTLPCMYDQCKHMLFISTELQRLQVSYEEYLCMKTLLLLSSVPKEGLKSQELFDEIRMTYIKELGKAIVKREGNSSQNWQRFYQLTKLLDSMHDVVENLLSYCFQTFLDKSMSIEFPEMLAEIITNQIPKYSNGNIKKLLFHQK
Protocol: RNA transcripts were then extracted from mouse ears and the transcripts of 4 genes were analyzed by q-RT-PCR: • (i) the directly GR-transactivated gene of the mTOR inhibitor REDD1, • (ii) the GR-directly transrepressed gene of keratin 5 (K5) and • (iii) the GR-indirectly “tethered” transrepressed genes of interleukin-1β (IL-1β) and interleukin-6 (IL-6), both being activated in presence of 12-O-tetradecanoylphorbol-13-acetate (TPA).

[2] = tested on: Balb/C mouse ears; assay: TPA-induced irritant contact dermatitis-like inflammation; type: in vivo; details: for TPA-induced ear skin inflammation, histological analysis: compared to the control; for TPA-induced ear skin inflammation, histological analysis / expression of TSLP in TPA-treated mouse epidermis: data not shown; for TPA-induced transcription of pro-inflammatory genes: ear extracts, q-RT-PCR, D10; for expression of TSLP in TPA-treated mouse epidermis: immunochemistry with TSLP-specific antibody; for TPA-induced skin inflammation: topical, 5 days co-treatment with TPA
Protocol: Balb/C mouse ears were topically treated with TPA to induce an “irritant contact dermatitis-like inflammation”.
Mice were treated for 4 days with TPA, then for 5 extra days (until D9) with either vehicle, TPA alone, TPA and Dex, TPA and CpdX or TPA and CpdX-D3.
At D10, RNA transcripts were extracted from mouse ear skin samples and the transcripts of CCL4, COX2, MMP13, IL-1β, IL-6, TNF-α, TSLP, IL-22 and IL-23 were analyzed by q-RT-PCR. Ear skin was harvested, and histological (with H&E staining) and immunohistochemical (with anti-TSLP antibodies) analyses were carried out.

[3] = tested on: Balb/C mouse ears; assay: Calcipotriol (MC 903)-induced atopic dermatitis-like inflammation; type: in vivo; details: for MC 903-induced ear skin inflammation, histological analysis: compared to the control; for MC 903-induced transcription of pro-inflammatory genes (MMP13, COX2, IL-1β, IL-6, IL-10, IL-13 and TSLP): ear extracts, q-RT-PCR, D23; for expression of the TSLP lymphokine in MC 903-treated mouse epidermis: immunohistochemistry, data not shown; for MC 903-induced skin inflammation: topical, 8 days co-treatment with MC 903
Protocol: To investigate the CpdX anti-inflammatory activity in vivo, Balb/C mouse ears were topically treated with calcipotriol (MC 903, a vitamin D3 analogue), in order to induce an atopic dermatitis (AD)-like inflammation (Li et al., 2006. Proc Natl Acad Sci USA. 103[…].
Mice were treated for 14 days with MC 903, and then for 8 extra days (until D22) with either MC 903 alone (control), MC 903 and Dex, MC 903 and CpdX, MC 903 and CpdX(eA), MC 903 and CpdX(eB), MC 903 and CpdX-D3, MC 903 and CpdX-D3(eA) and MC 903 and CpdX-D3(eB).
At D23, RNA transcripts were extracted from mouse ear skin samples and the transcripts of 7 cytokines (MMP13, COX2, IL-1β, IL-6, IL-10, IL-13 and TSLP) were analyzed by q-RT-PCR. Ear skin was harvested and histological (with H&E staining) and immunohistochemical (with anti-TSLP antibodies) analyses were carried out.

[4] = tested on: Balb/C mouse ears; assay: Aldara-induced psoriasis-like skin inflammation; type: in vivo; details: for induced expression of the Th17 cytokines IL-17a, IL-17c, IL-17f and IL-22: ear extracts, q-RT-PCR, D10; for Aldara-induced psoriasis-like skin inflammation, H&E histology: mouse, in vivo; for Aldara-induced psoriasis-like skin inflammation: topical co-treatment for the last 5 days, 1 nmole/cm^2
Protocol: Balb/C mouse ears were topically treated with Aldara® to induce a psoriasis-like skin inflammation (Vinter et al., 2015. Br J Dermatol. 172(2):345-53). Mice were treated for 9 days with Aldara®, including a co-topical treatment for the last 5 days with either ethanol (Vehicle), Dex, CpdX or CpdX-D3.
At D10, RNA transcripts were extracted from mouse ears and IL-17a, IL-17c, IL-17f and IL-22 transcripts were analyzed by q-RT-PCR. Ear skin samples were also harvested for histological analyses (with H&E staining).

[5] = tested on: B6 male mice; assay: Body weight and body composition after three-month treatment; type: in vivo, mouse; details: s.c. 1 mg/kg daily, 3 months, pDEXA
Protocol: B6 male mice (8-week-old) were daily subjected for three months to a subcutaneous injection of either vehicle (NaCl 0.9%), Dex, CpdX or CpdX-D3 (1 mg/kg body weight, diluted in vehicle. A pDEXA machine was used to determine the lean mass and fat mass. The statistical significance was calculated through Krustal-Walis test followed by a Dunn's multiple comparison test, *p<0.05; **p<0.01; ***p<0.001.

[6] = topical 18 h, 1 nmole/cm^2, q-RT-PCR, vs Vehicle

| direct transrepression of the K5 gene (relative RNA expression) [1, 6] | transactivation of the REDD1 gene (relative RNA expression) [1, 6] | Compound | GR functions induced (direct transactivation, direct transrepression, indirect tethered transrepression) ([1]; in vivo transcriptional analyses, 1 nmole/cm^2) | TPA-induced ear skin inflammation, histological analysis [2] | TPA-induced transcription of pro-inflammatory genes [2] | expression of TSLP in TPA-treated mouse epidermis [2] | TPA-induced skin inflammation [2] | MC 903-induced ear skin inflammation, histological analysis [3] | MC 903-induced transcription of pro-inflammatory genes (MMP13, COX2, IL-1β, IL-6, IL-10, IL-13 and TSLP) [3] | expression of the TSLP lymphokine in MC 903-treated mouse epidermis [3] | MC 903-induced skin inflammation [3] | induced expression of the Th17 cytokines IL-17a, IL-17c, IL-17f and IL-22 [4] | Aldara-induced psoriasis-like skin inflammation, H&E histology [4] | Aldara-induced psoriasis-like skin inflammation [4] | fat mass [5] | lean percentage / lean mass [5] |
| --- | --- | --- | --- | --- | --- | --- | --- | --- | --- | --- | --- | --- | --- | --- | --- | --- |
| unchanged | unchanged | COc1ccc(F)cc1C(C)(C)CC(O)(CNc1ccc2c(c1)COC2=O)C(F)(F)F (racemic) [CpdX, 5-[4-(5-fluoro-2-methoxyphenyl)-2-hydroxy-4-methyl-2-(trifluoromethyl)pentylamino]-isobenzofuran-1(3H)-one] | selectively exhibits an indirect tethered transrepression activity | significantly decreased | repressed, as efficiently as Dex | similarly strongly decreased | significantly decreased | decreased | repressed, as efficiently as Dex | similarly strongly decreased | significantly decreased | similarly reduced | could reduce | significantly decreased | commensurate increase | commensurate increase |
| – | – | [2H]C([2H])([2H])Oc1ccc(F)cc1C(C)(C)CC(O)(CNc1ccc2c(c1)COC2=O)C(F)(F)F (racemic) [CpdX-D3, 5-{4-[2-(methoxy-D3)-5-fluorophenyl]-2-hydroxy-4-methyl-2-(trifluoro-methyl)pentylamino}isobenzofuran-1(3H)-one] | – | significantly decreased | repressed, as efficiently as Dex | similarly strongly decreased | significantly decreased | decreased | repressed, as efficiently as Dex | similarly strongly decreased | significantly decreased | similarly reduced | could reduce | significantly decreased | commensurate increase | commensurate increase |
